From the supplement of paper PMC11208160

assay: recombinant UMI read abundance after kanamycin selection (control-corrected) (log10(CPM+1)); higher = more efficient recombination; extreme values may be limits of the assay; sequences stand for … in AGTGCAGAGAAAATCGGCCAGTTTTCTCTGCCTGCAGTCCGCATGCCGTGGGACCCCTTGGGTTCTAACCTGTTGCCTAGATTTATGCAGCGGACTGCCTTTCTCCCAAAGTGATAAACCGG…AGGTTGGTTTCACT; site = the 11-nt donor
Method in brief: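 Two replicates each of selected and unselected plating were used in this pooled Escherichia coli screen of donor and donor-binding-loop pairs for the IS621 bridge recombinase. Selection was with IPTG (0.07 mM) and kanamycin. Counts of recombinant UMIs, amplified across the donor–target junction, were converted to CPM, averaged, scaled by control-derived factors and reported as log10(CPM+1).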
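Further: IS621 bridge recombinase in Escherichia coli cells against a fixed T5 target plasmid.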

Point of comparison: “GTGGAGCCATGGACCGGTTTTCCCGGTAATCCGTATTTGTG (site GTGGAGCCTCA)”, “recombinant UMI read abundance (log10)” value 0.484. Against it:
- GTGGACGCATGGACCGGTTTTCCCGGTAATCCGTATTTGTG (site GTGGAGGCTCA) — lower, 0.0785
- GTGGACGCATGGACCGGTTTTCCCGGTAATCCGTATTTGTG (site GTGGATGCTCA) — within 0.2 log units, 0.653
- GTGGAGACATGGACCGGTTTTCCCGGTAATCCGTATTTGTG (site GTGGAGACTCA) — higher, 1.59
- GTGGAGACATGGACCGGTTTTCCCGGTAATCCGTATTTGTG (site GTGGAGCCTCA) — lower, 0.0116
- GTGGAGACATGGACCGGTTTTCCCGGTAATCCGTATTTGTG (site GTGGAGGCTCA) — higher, 1.4
- GTGGAGACATGGACCGGTTTTCCCGGTAATCCGTATTTGTG (site GTGGAGTCTCA) — higher, 1.99
- GTGGAGCCATGGACCGGTTTTCCCGGTAATCCGTATTTGTG (site GTGGAGACTCA) — lower, 0.00935
- GTGGAGCCATGGACCGGTTTTCCCGGTAATCCGTATTTGTG (site GTGGAGGCTCA) — lower, 0.00706
- GTGGAGCCATGGACCGGTTTTCCCGGTAATCCGTATTTGTG (site GTGGAGTCTCA) — higher, 1.74
- GTGGAGGCATGGACCGGTTTTCCCGGTAATCCGTATTTGAG (site GTGGAGGCTCA) — lower, 0.00393
- GTGGAGGCATGGACCGGTTTTCCCGGTAATCCGTATTTGAG (site GTGGAGGCTCC) — within 0.2 log units, 0.297
- GTGGAGGCATGGACCGGTTTTCCCGGTAATCCGTATTTGAG (site GTGGAGGCTCG) — within 0.2 log units, 0.681
- GTGGAGGCATGGACCGGTTTTCCCGGTAATCCGTATTTGAG (site GTGGAGGCTCT) — higher, 1.57
- GTGGAGGCATGGACCGGTTTTCCCGGTAATCCGTATTTGGG (site GTGGAGGCTCA) — lower, 0.238
- GTGGAGGCATGGACCGGTTTTCCCGGTAATCCGTATTTGGG (site GTGGAGGCTCC) — higher, 0.954
- GTGGAGGCATGGACCGGTTTTCCCGGTAATCCGTATTTGGG (site GTGGAGGCTCG) — within 0.2 log units, 0.597
- GTGGAGGCATGGACCGGTTTTCCCGGTAATCCGTATTTGGG (site GTGGAGGCTCT) — within 0.2 log units, 0.567
- GTGGAGGCATGGACCGGTTTTCCCGGTAATCCGTATTTGTA (site GTGGAGGCTAA) — within 0.2 log units, 0.557
- GTGGAGGCATGGACCGGTTTTCCCGGTAATCCGTATTTGTA (site GTGGAGGCTCA) — within 0.2 log units, 0.682
- GTGGAGGCATGGACCGGTTTTCCCGGTAATCCGTATTTGTA (site GTGGAGGCTGA) — higher, 0.943
- GTGGAGGCATGGACCGGTTTTCCCGGTAATCCGTATTTGTA (site GTGGAGGCTTA) — higher, 2.86
- GTGGATACATGGACCGGTTTTCCCGGTAATCCGTATTTGCA (site GTGGATACTTG) — higher, 1.84
- GTGGCCTCATGGACCGGTTTTCCCGGTAATCCGTATTTGGA (site GTGGCCTCTTC) — higher, 1.43
- GTGGCTGCATGGACCGGTTTTCCCGGTAATCCGTATTTGCC (site GTGGCTGCTGG) — higher, 2.44
- GTGGGCGCATGGACCGGTTTTCCCGGTAATCCGTATTTGAC (site GTGGGCGCTGT) — higher, 2.43
- GTGGGTACATGGACCGGTTTTCCCGGTAATCCGTATTTGTG (site GTGGGTACTCA) — higher, 1.46
- GTGGGTTCATGGACCGGTTTTCCCGGTAATCCGTATTTGGC (site GTGGGTTCTGC) — higher, 2.19
- GTGGTCGCATGGACCGGTTTTCCCGGTAATCCGTATTTGCG (site GTAGTCGCTCG) — within 0.2 log units, 0.519
- GTGGTCGCATGGACCGGTTTTCCCGGTAATCCGTATTTGCG (site GTCGTCGCTCG) — lower, 0.0116
- GTGGTCGCATGGACCGGTTTTCCCGGTAATCCGTATTTGCG (site GTGGTCGCTCG) — higher, 1.15
- GTGGTCGCATGGACCGGTTTTCCCGGTAATCCGTATTTGCG (site GTTGTCGCTCG) — lower, 0.00973
- GTGTAAACATGGACCGGTTTTCCCGGTAATCCGTATTTGCT (site GTGTAAACTAG) — higher, 2.89
- GTGTATACATGGACCGGTTTTCCCGGTAATCCGTATTTGCT (site GTGTATACTAG) — higher, 2.44
- GTGTCCCCATGGACCGGTTTTCCCGGTAATCCGTATTTGGA (site GTGTCCCCTTC) — lower, 0.0113
- GTGTGCACATGGACCGGTTTTCCCGGTAATCCGTATTTGTA (site GTATGCACTTA) — higher, 1.48
- GTGTGCACATGGACCGGTTTTCCCGGTAATCCGTATTTGTA (site GTCTGCACTTA) — lower, 0.0255
- GTGTGCACATGGACCGGTTTTCCCGGTAATCCGTATTTGTA (site GTGTGCACTTA) — higher, 2.15
- GTGTGCACATGGACCGGTTTTCCCGGTAATCCGTATTTGTA (site GTTTGCACTTA) — lower, 0.00854
- GTGTTCTCATGGACCGGTTTTCCCGGTAATCCGTATTTGAA (site GTGTTCTCTTT) — higher, 2.52
- GTTAAAACATGGACCGGTTTTCCCGGTAATCCGTATTTGGC (site GTTAAAACTGC) — lower, 0
- GTTAAAACATGGACCGGTTTTCCCGGTAATCCGTATTTGGC (site GTTACAACTGC) — lower, 0
- GTTAAAACATGGACCGGTTTTCCCGGTAATCCGTATTTGGC (site GTTAGAACTGC) — lower, 0.02
- GTTAAAACATGGACCGGTTTTCCCGGTAATCCGTATTTGGC (site GTTATAACTGC) — lower, 0
- GTTAAATCATGGACCGGTTTTCCCGGTAATCCGTATTTGAA (site GTTAAATCTTT) — higher, 1.62
- GTTAAGGCATGGACCGGTTTTCCCGGTAATCCGTATTTGTC (site GTTAAGGCTGA) — higher, 2.82
- GTTACACCATGGACCGGTTTTCCCGGTAATCCGTATTTGAA (site GTTACACCTTT) — lower, 0.0186
- GTTAGAACATGGACCGGTTTTCCCGGTAATCCGTATTTGCC (site GTTAGAACTGA) — lower, 0
- GTTAGAACATGGACCGGTTTTCCCGGTAATCCGTATTTGCC (site GTTAGAACTGC) — lower, 0
- GTTAGAACATGGACCGGTTTTCCCGGTAATCCGTATTTGCC (site GTTAGAACTGG) — lower, 0
- GTTAGAACATGGACCGGTTTTCCCGGTAATCCGTATTTGCC (site GTTAGAACTGT) — lower, 0
- GTTAGAACATGGACCGGTTTTCCCGGTAATCCGTATTTGGG (site GTTAGAACTAC) — lower, 0
- GTTAGAACATGGACCGGTTTTCCCGGTAATCCGTATTTGGG (site GTTAGAACTCC) — lower, 0.172
- GTTAGAACATGGACCGGTTTTCCCGGTAATCCGTATTTGGG (site GTTAGAACTGC) — lower, 0
- GTTAGAACATGGACCGGTTTTCCCGGTAATCCGTATTTGGG (site GTTAGAACTTC) — lower, 0.00779
- GTTAGAACATGGACCGGTTTTCCCGGTAATCCGTATTTGTC (site GTTAGAACTGA) — higher, 1.52
- GTTAGAACATGGACCGGTTTTCCCGGTAATCCGTATTTGTC (site GTTAGAACTGC) — lower, 0
- GTTAGAACATGGACCGGTTTTCCCGGTAATCCGTATTTGTC (site GTTAGAACTGG) — lower, 0
- GTTAGAACATGGACCGGTTTTCCCGGTAATCCGTATTTGTC (site GTTAGAACTGT) — lower, 0.013
- GTTAGAGCATGGACCGGTTTTCCCGGTAATCCGTATTTGAC (site GTTAGAGCTGT) — higher, 2.46
- GTTAGATCATGGACCGGTTTTCCCGGTAATCCGTATTTGGC (site GTTAGAACTGC) — lower, 0
- GTTAGATCATGGACCGGTTTTCCCGGTAATCCGTATTTGGC (site GTTAGACCTGC) — lower, 0
- GTTAGATCATGGACCGGTTTTCCCGGTAATCCGTATTTGGC (site GTTAGAGCTGC) — lower, 0
- GTTAGATCATGGACCGGTTTTCCCGGTAATCCGTATTTGGC (site GTTAGATCTGC) — higher, 1.92
- GTTATAACATGGACCGGTTTTCCCGGTAATCCGTATTTGGC (site GTTAAAACTGC) — lower, 0
- GTTATAACATGGACCGGTTTTCCCGGTAATCCGTATTTGGC (site GTTACAACTGC) — lower, 0
- GTTATAACATGGACCGGTTTTCCCGGTAATCCGTATTTGGC (site GTTAGAACTGC) — lower, 0
- GTTATAACATGGACCGGTTTTCCCGGTAATCCGTATTTGGC (site GTTATAACTGC) — higher, 1.28
- GTTATTGCATGGACCGGTTTTCCCGGTAATCCGTATTTGAT (site GTTATTGCTAT) — higher, 1.79
- GTTCCAGCATGGACCGGTTTTCCCGGTAATCCGTATTTGCA (site GTTCAAGCTTG) — lower, 0
- GTTCCAGCATGGACCGGTTTTCCCGGTAATCCGTATTTGCA (site GTTCCAGCTTG) — higher, 1.64
- GTTCCAGCATGGACCGGTTTTCCCGGTAATCCGTATTTGCA (site GTTCGAGCTTG) — lower, 0
- GTTCCAGCATGGACCGGTTTTCCCGGTAATCCGTATTTGCA (site GTTCTAGCTTG) — lower, 0
- GTTCCAGCATGGACCGGTTTTCCCGGTAATCCGTATTTGCT (site GTTCCAGCTAG) — higher, 1.06
- GTTCGAACATGGACCGGTTTTCCCGGTAATCCGTATTTGCA (site GTTCGAACTTG) — within 0.2 log units, 0.418
